{
  "source": "paper PMC11854450",
  "about": "(RSC Chemical Biology, 2025)",
  "test_in_all_cases": "fluorogenic activity assay",
  "format_in_all_cases": "biochemical",
  "key": {"activeCASP-3": {"biological_target": "T1, activeCASP-3 (Homo sapiens, UniProt P42574)", "T1 sequence (P42574 29-175)": "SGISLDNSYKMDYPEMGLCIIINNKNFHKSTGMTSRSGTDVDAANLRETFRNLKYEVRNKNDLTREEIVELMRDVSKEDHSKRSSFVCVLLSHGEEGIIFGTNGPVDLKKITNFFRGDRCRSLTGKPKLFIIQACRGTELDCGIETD", "T1 sequence (P42574 176-277)": "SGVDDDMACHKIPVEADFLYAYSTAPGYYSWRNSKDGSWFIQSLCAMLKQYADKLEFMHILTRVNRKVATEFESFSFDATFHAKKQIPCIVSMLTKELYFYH", "settings": "0.3 μM enzyme; 1 h pre-incubation; PBS"}, "activeCASP10": {"biological_target": "T2, activeCASP10 (Homo sapiens, UniProt Q92851)", "T2 sequence (Q92851 220-415)": "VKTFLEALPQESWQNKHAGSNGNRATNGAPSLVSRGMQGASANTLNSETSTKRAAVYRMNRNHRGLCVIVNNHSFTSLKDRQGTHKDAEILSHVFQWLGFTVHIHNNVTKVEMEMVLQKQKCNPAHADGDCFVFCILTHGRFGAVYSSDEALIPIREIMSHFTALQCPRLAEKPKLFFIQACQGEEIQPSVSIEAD", "T2 sequence (Q92851 416-521)": "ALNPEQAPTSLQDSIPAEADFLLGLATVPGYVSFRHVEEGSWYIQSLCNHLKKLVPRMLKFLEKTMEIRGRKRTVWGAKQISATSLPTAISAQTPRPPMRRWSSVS", "settings": "333 nM enzyme; 1 h pre-incubation; PBS with 333 mM citrate"}, "active caspase-8": {"biological_target": "active caspase-8 (Homo sapiens, UniProt Q14790)", "sequence (Q14790 217-374)": "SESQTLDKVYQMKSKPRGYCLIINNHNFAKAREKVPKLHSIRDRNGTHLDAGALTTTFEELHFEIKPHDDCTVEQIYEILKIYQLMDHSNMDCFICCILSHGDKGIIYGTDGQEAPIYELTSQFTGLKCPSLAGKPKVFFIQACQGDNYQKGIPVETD", "sequence (Q14790 385-479)": "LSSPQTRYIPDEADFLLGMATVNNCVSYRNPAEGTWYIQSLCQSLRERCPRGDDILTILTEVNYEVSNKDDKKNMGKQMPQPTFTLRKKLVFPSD", "settings": "1 h pre-incubation; PBS"}},
  "data": [
    {"smiles": "NS(=O)(=O)C#Cc1ccccc1", "note": "[PFTμ, pifithrin-μ]", "values": [
      {"measurement": "Relative activity", "setting": "activeCASP-3", "result": "PFTμ also significantly inhibited active caspase-3 and active caspase-8"},
      {"measurement": "Relative activity", "setting": "activeCASP10", "result": "we found that PFTμ inhibited both proteoforms to some degree"},
      {"measurement": "Relative activity", "setting": "active caspase-8", "result": "PFTμ also significantly inhibited active caspase-3 and active caspase-8"}
    ]}
  ]
}
